Where two headings read alike, the source gives them in different places.
Legend:
rat NL-A1AR = system: T1, rat NL-A1AR; test: NanoBRET dissociation kinetics, rat NL-A1AR HEK293 cells; assay type: binding; conditions: rat NL-A1AR HEK293 cells prelabeled with 250 nM, 10 μM DPCPX
T1 construct: expressed in transfected cells
Protocol: Figure 3 Molecular pharmacology and biochemical characterization of 11 and 12. NanoBRET ligand-binding data were measured in HEK293 cells stably expressing the human NL-A1AR (A–C) or rat NL-A1AR (D–F). […] Data were normalized to maximal BRET signals in the absence of unlabeled competing ligands (total binding, TB). (C, F) NanoBRET dissociation kinetics experiments with 11 (SulfoCy5) performed in human and rat NL-A1AR HEK293T cells, respectively. Cells were treated with 250 nM 11 (SulfoCy5, lilac open circles) for 5 h and CA200645 (black open triangles) for 2 h. […] Each data point represents the combined mean ± SEM from n = 5 (A, C), n = 4 (B, D), and n = 3 (E, F) experiments, each one performed in triplicate. (G) HEK293G cells stably expressing TS-SNAP-A1AR were treated with 300 nM 11 or 130 nM 12 in serum-free media for 2 h at 37 °C and 5% CO2. For samples treated with compound 12, the labeling solution was removed and immediately replaced with 10 mL of serum-free media containing 1 μM Met-Tet-Cy5 and incubated at 37 °C and 5% CO2 for a further 15 min. Untreated cells were used as a control. TS-SNAP-A1AR was purified and separated on an SDS-PAGEgel gel, and direct Cy5 fluorescence was visualized using in-gel fluorescence. The gel shown is representative of three independent experiments. […]
(§1) 37 °C for kinetic binding experiments. Emissions were read at 420 nm (80 nm bandpass; […]

NL-hA2BAR [1] = target: T2, NL-hA2BAR (Homo sapiens, UniProt P29275); test: NanoBRET saturation ligand-binding assay, NL-hA2BAR
T2 construct: expressed in transfected cells
T2 sequence (P29275 1-332): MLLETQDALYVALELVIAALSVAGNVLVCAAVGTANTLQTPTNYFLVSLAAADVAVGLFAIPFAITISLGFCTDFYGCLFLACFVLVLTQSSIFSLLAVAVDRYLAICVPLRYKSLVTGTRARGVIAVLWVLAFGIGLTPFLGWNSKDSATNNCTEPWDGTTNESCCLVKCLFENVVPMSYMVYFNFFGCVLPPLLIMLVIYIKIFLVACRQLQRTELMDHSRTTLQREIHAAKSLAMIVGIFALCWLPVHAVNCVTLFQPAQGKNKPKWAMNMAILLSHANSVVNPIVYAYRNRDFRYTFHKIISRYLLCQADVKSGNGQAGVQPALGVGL
Protocol: Probes 11 and 12 were further evaluated for their ability to bind the other three adenosine receptor subtypes (NL-A2AAR, NL-A2BAR, and NL-A3AR), and their ligand-binding properties were quantified in the NanoBRET saturation and inhibition binding assays, respectively (Table 1 and Figure 4).
(§2) NanoBRET binding assay. All NanoBRET experiments were performed in white flat […]
as §1
(§3) the SulfoCy5-labelled probe. […]
(§4) nm emission by the 420 nm emission. The term “raw BRET ratio” refers to the unprocessed data as no background ratio has been subtracted. In all NanoBRET binding […]
(§5) competitive antagonist selective for the adenosine receptor under investigation […]
(§6) MRS1220 for the A3AR). HEK293T cells stably/transiently expressing Nluc-AR were […]
(§7) were incubated for 1 h at 37 °C. […]
NanoBRET saturation binding assay. Total and nonspecific saturation binding curves were fit simultaneously using the following equation:
BRET ratio = Bmax[B] + M(B) + C […]
Uninhibited specific binding = 100 ― 100 x [A]

NL-rA1AR = target: T3, NL-rA1AR (Rattus norvegicus, UniProt P25099); test: NanoBRET saturation ligand-binding assay, NL-rA1AR
T3 construct: expressed in transfected cells
T3 sequence (P25099 1-326): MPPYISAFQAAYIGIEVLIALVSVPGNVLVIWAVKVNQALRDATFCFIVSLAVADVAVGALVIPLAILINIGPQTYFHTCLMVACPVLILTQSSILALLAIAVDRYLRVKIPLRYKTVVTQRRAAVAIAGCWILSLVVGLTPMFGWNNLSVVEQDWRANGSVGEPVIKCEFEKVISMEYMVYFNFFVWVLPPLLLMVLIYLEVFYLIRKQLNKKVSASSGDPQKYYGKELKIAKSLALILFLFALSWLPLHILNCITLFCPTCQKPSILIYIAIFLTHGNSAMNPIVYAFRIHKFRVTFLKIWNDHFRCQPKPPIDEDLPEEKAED
Protocol: The ligand-binding properties of the newly synthesized probes were assessed in a series of pharmacological assays. Initially, a NanoBRET[47],[48] saturation binding experiment was used to evaluate the binding affinity of ligand-directed probes functionally labeled with the SulfoCy5 fluorophore (11) to the NanoLuc(NL)-tagged[49] hA1AR expressed in HEK293T cells.
as §2, §1, §3, §4, §5, §6, §7
NanoBRET saturation binding assay. Total and nonspecific saturation binding curves were fit simultaneously using the following equation: […]

NL-hA2BAR [2] = target: T2, NL-hA2BAR; test: NanoBRET competition ligand-binding assay (CA200645 tracer), NL-hA2BAR; conditions: CA200645 (25 nM) tracer, HEK293T cells, mean ± SEM; read-out: affinity values pKi, NL-hA2BAR (converted)

Row | Compound | ability to covalently transfer the fluorophore to the A1AR (dissociation experiment) (rat NL-A1AR) | Kd (NL-hA2BAR [1]; HEK293T cells stably expressing NL-hA2BAR, read-out: affinity values pKD, NL-hA2BAR (converted)) [nM] | BRET signal detected at NL-A2BAR (NL-hA2BAR [1]; concentrations tested 0–500 nM) | Kd (NL-rA1AR; HEK293T cells stably expressing rat NanoLuc-A1AR, mean ± SEM, read-out: affinity values pKD, NL-rA1AR (converted)) [nM] | Kd (NL-rA1AR; supplementary CSV, read-out: AFFINITY (A1AR_rat) pKD (converted)) [nM] | Ki (NL-hA2BAR [2]) [nM]
1 | CCCCn1c(=O)c2[nH]c(C34CCC(C(=O)NCCNC(=O)CCNC(=O)c5ccc(OC(=O)CCCCC[N+]6=C(/C=C/C=C/C=C7/N(C)c8ccc(S(=O)(=O)O)cc8C7(C)C)C(C)(C)c7cc(S(=O)(=O)[O-])ccc76)c(F)c5)(CC3)CC4)nc2n(CCCC)c1=O [Compound 11, 1-(6-(4-((3-((2-(4-(1,3-Dibutyl-2,6-dioxo-2,3,6,7-tetrahydro-1H-purin-8-yl)bicyclo[2.2.2]octane-1-carboxamido)ethyl)amino)-3-oxopropyl)carbamoyl)-2-fluorophenoxy)-6-oxohexyl)-3,3-dimethyl-2-((1E,3E)-5-((E)-1,3,3-trimethyl-5-sulfoindolin-2-ylidene)penta-1,3-dien-1-yl)-3H-indol-1-ium-5-sulfonate] | could be retained across species | > 1000 | minimal BRET signal | 9.12 | 10.2 | 
2 | CCCCn1c(=O)c2[nH]c(C34CCC(C(=O)NCCNC(=O)CCNC(=O)c5ccc(OC(=O)CCC(=O)NCCOCCOCCNC(=O)O[C@H]6CC/C=C/CCC6)c(F)c5)(CC3)CC4)nc2n(CCCC)c1=O [Compound 12, 4-((3-((2-(4-(1,3-Dibutyl-2,6-dioxo-2,3,6,7-tetrahydro-1H-purin-8-yl)bicyclo[2.2.2]octane-1-carboxamido)ethyl)amino)-3-oxopropyl)carbamoyl)-2-fluorophenyl (R,E)-1-(Cyclooct-4-en-1-yloxy)-1,12-dioxo-5,8-dioxa-2,11-diazapentadecan-15-oate] |  |  |  |  |  | 813

— publication PMC11284787, “Ligand-Directed Labeling of the Adenosine A1 Receptor in Living Cells” (Journal of Medicinal Chemistry, 2024)
